# In ChEMBL document CHEMBL1777680, “Part 1: N-alkylated glycines as potent α2δ ligands” (Bioorg Med Chem Lett, 2011):
# pIC50: −log10 of the molar value.
# Assays:
# [1] = Displacement of [3H]Gabapentin from alpha2delta calcium channel in pig brain tissue homogenates after 45 mins by scintillation counting; type: tissue-based, Sus scrofa
# [2] = Half life in iv dosed rat; type: ADME, organism-based; conditions: in vivo
# [3] = Tmax in iv dosed rat; type: ADME, organism-based; conditions: in vivo
# [4] = system: Rattus norvegicus; assay: Unbound clearance in iv dosed rat; type: ADME, organism-based; conditions: in vivo
# [5] = Volume of distribution in iv dosed rat; type: ADME, organism-based; conditions: in vivo
pIC50 [1],Compound,other results
6.71,O=C(O)CNCCSc1ccc(Cl)cc1,–
5.18,O=C(O)CNCCOc1ccc(Cl)cc1,–
5.60,O=C(O)CNCCSc1ccc(F)cc1,–
7.23,O=C(O)CNCCSc1ccc(Br)cc1,–
5.27,O=C(O)CNCCSc1ccccc1,–
7.66,O=C(O)CNCCSc1ccc2ccccc2c1,half-life [2]: 66 min; Tmax [3]: 15 min; CL free [4]: 23 mL/min/kg; Vd [5]: 0.6 L/kg
6.37,O=C(O)CNCCSc1cccc(Br)c1,–
7.08,O=C(O)CNCCSc1ccc2ccncc2c1,–
6.17,N#Cc1ccc(SCCNCC(=O)O)cc1,–
6.05,NCc1ccc(SCCNCC(=O)O)cc1,–
6.36,C[C@@H](CNCC(=O)O)Oc1ccc(Br)cc1,–
5.18,C[C@H](CNCC(=O)O)Oc1ccc(Br)cc1,–
6.28,CC(CNCC(=O)O)Oc1ccc(Cl)cc1 (racemic),–
6.67,CCC(CNCC(=O)O)Oc1ccc(Br)cc1 (racemic),–
7.40,CCC(CNCC(=O)O)Oc1cccc(Cl)c1 (racemic),–
